Experiment [1] relates to A-375. The experiment is described as follows: Cytotoxicity against human A-375 cells assessed as cell viability at 10 uM incubated for 48 hrs (reference value: 100 %). It is filed as functional. As to conditions: read-out: Activity.
Experiment [2] deals with A-375. The experiment in a line: Cytotoxicity against human A-375 cells assessed as cell viability at 5 uM incubated for 48 hrs (reference value: 100 %). It is filed as functional. As to conditions: read-out: Activity.

Regarding `COc1ccc(-c2nc(-c3ccc(Cn4ncc(=O)[nH]c4=O)cc3)no2)cc1`, in the experiment with A-375 [1], the viability at 10 µM was 55%. In addition, the viability at 5 µM with A-375 [2] amounted to 53%.

Consider `O=c1ccn(Cc2ccc(-c3noc(-c4ccc(-c5ccccc5)cc4)n3)cc2)c(=O)[nH]1`, for which, in the experiment on A-375 [1], the viability at 10 µM stood at 82%. Also, the viability at 5 µM in the experiment with A-375 [2] came out at 85%.

In the case of `N/C(=N\O)c1ccc(Cn2ncc(=O)[nH]c2=O)cc1`, the viability at 10 µM in the experiment on A-375 [1] worked out at 94%. In the experiment on A-375 [2], the viability at 5 µM worked out at 100%.

For `COc1ccc(-c2ccc(-c3nc(-c4ccc(Cn5ncc(=O)[nH]c5=O)cc4)no3)cc2)cc1`, the viability at 10 µM in the experiment with A-375 [1] amounted to 44%. In the experiment on A-375 [2], the viability at 5 µM was determined as 76%.

In the case of `O=c1[nH]c(=O)n(Cc2ccc(-c3noc(-c4ccccc4)n3)cc2)cc1F`, the viability at 10 µM with A-375 [1] came to 30%. Moreover, the viability at 5 µM in the experiment on A-375 [2] was found to be 56%.

Consider `COc1ccc(-c2nc(-c3ccc(Cn4cc(F)c(=O)[nH]c4=O)cc3)no2)cc1`, for which, in the experiment on A-375 [1], the viability at 10 µM was determined as 82%. For the same molecule, the viability at 5 µM in the experiment on A-375 [2] was 50%.

The values are drawn from ChEMBL document CHEMBL4673234, “Design, synthesis, biological evaluation and molecular docking of new uracil analogs-1,2,4-oxadiazole hybrids as potential anticancer agents” (Bioorg Med Chem Lett, 2020).
